Measured values reported in US8729017B2 (priority 2011, dated 2014).
pEC50: −log10 of the molar value. Numbered stars: 1 amine (or outer) side, 2 acyl side, 3 side chain; on linkers, the order of the positions; unused ones are H or OH. Square brackets hold non-standard residues; d marks the D form. Side chains are listed from the residue outwards. Peptide text beside a SMILES is read from it. * marks the point of attachment. γGlu = O=C(O)[C@H](CCC(=O)[*:2])N[*:1]; Palmitoyl = CCCCCCCCCCCCCCCC(=O)*; Aib = CC(C)(N)C(=O)O

Legend:
Format in all cases: cell-based
GIP receptor = target: T1, GIP receptor (Homo sapiens, UniProt P48546); assay: in vitro agonist activity at the GIP receptor (cAMP luciferase reporter, HEK293 cells); details: in vitro agonist activity; read-out: EC50 (nM) at GIP receptor
T1 construct: expressed in transfected cells; host or cells: HEK293
T1 sequence (P48546 22-466): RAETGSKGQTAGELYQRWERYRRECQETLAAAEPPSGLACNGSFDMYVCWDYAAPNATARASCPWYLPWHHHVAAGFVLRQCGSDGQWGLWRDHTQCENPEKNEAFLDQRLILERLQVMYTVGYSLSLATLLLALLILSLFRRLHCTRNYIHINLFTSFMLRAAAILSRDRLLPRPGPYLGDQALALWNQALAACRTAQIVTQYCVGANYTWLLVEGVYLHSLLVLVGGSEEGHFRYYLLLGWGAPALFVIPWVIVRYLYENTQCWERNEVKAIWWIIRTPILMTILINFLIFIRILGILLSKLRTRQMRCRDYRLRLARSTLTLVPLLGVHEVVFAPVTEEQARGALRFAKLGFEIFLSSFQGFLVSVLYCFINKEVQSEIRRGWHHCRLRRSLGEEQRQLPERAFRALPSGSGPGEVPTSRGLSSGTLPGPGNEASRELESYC
Procedure: It is understood that a lower EC50 indicates higher activity or potency at the receptor. […] The ability of each peptide to induce cAMP was measured in a firefly luciferase-based reporter assay. […] At the end of the incubation, 100 μL of LucLite luminescence substrate reagent (Perkin Elmer, Wellesley, Mass.) were added to each well. […] In some instances, the in vitro agonist activity at the GIP receptor was also tested.

glucagon receptor = target: T2, glucagon receptor (Homo sapiens, UniProt P47871); assay: cAMP induction, firefly luciferase reporter assay in HEK293 cells co-transfected with the glucagon receptor; details: HEK293 cells, cAMP-responsive luciferase reporter, 5 hours incubation
T2 construct: expressed in transfected cells; host or cells: HEK293
Procedure: (§1) The ability of each peptide to induce cAMP was measured in a firefly luciferase-based reporter assay. […] At the end of the incubation, 100 μL of LucLite luminescence substrate reagent (Perkin Elmer, Wellesley, Mass.) were added to each well. […] In some instances, the in vitro agonist activity at the GIP receptor was also tested.

GLP-1 receptor = target: T3, GLP-1 receptor (Homo sapiens, UniProt P43220); assay: cAMP induction, firefly luciferase reporter assay in HEK293 cells co-transfected with the GLP-1 receptor; details: HEK293 cells, cAMP-responsive luciferase reporter, 5 hours incubation
T3 construct: expressed in transfected cells; host or cells: HEK293
Procedure: as §1

T2 sequence (P47871 26-477, species assumed): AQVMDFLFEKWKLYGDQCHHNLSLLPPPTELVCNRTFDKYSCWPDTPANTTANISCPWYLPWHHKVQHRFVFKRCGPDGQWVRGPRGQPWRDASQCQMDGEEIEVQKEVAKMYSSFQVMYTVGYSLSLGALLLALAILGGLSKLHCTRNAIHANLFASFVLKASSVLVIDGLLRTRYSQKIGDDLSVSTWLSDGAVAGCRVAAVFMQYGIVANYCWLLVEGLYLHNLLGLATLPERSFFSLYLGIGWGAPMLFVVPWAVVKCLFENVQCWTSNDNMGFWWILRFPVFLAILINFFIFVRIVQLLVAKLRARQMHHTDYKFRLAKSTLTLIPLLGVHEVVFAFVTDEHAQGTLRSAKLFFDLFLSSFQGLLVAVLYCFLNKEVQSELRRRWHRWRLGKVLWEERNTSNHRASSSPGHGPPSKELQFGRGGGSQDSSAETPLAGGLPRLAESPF
T3 sequence (P43220 24-463): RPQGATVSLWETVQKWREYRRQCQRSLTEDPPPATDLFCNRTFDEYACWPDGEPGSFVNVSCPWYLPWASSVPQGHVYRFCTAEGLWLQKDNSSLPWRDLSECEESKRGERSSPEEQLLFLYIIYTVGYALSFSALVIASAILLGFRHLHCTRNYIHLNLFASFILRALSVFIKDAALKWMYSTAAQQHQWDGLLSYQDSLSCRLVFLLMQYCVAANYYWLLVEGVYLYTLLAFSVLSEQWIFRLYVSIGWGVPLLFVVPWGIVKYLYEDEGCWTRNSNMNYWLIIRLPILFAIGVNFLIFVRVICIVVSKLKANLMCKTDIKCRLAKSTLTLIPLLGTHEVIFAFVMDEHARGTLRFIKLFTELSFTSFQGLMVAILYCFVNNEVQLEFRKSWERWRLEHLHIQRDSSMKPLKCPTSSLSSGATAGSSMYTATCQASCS

EC50 (GIP receptor)	pEC50 (glucagon receptor)	pEC50 (GLP-1 receptor)	SMILES
2.84 nM	10.82	11.52	CCCCCCCCCCCCCCCC(=O)N[C@@H](CCC(=O)NCCCC[C@H](NC(=O)[C@H](CC(=O)O)NC(=O)[C@H](CO)NC(=O)[C@@H](NC(=O)[C@H](Cc1ccccc1)NC(=O)[C@@H](NC(=O)CNC(=O)[C@H](CCC(N)=O)NC(=O)[C@@H](CO)NC(=O)[C@@H](N)Cc1c[nH]cn1)[C@@H](C)O)[C@@H](C)O)C(=O)N[C@@H](CO)C(=O)N[C@@H](CCCCN)C(=O)N[C@@H](Cc1ccc(O)cc1)C(=O)N[C@@H](CC(C)C)C(=O)N[C@@H](CC(=O)O)C(=O)N[C@@H](CCC(=O)O)C(=O)N[C@@H](CCCNC(=N)N)C(=O)N[C@@H](C)C(=O)N[C@@H](C)C(=O)N[C@@H](CCC(N)=O)C(=O)N[C@@H](CC(=O)O)C(=O)N[C@@H](Cc1ccccc1)C(=O)N[C@H](C(=O)N[C@@H](CCC(N)=O)C(=O)N[C@@H](Cc1c[nH]c2ccccc12)C(=O)N[C@@H](CC(C)C)C(=O)N[C@@H](CC(C)C)C(=O)N[C@@H](CC(=O)O)C(=O)NCC(=O)N[C@@H](CCCNC(=N)N)C(=O)N[C@@H](CCCCN)C(N)=O)C(C)C)C(=O)O [compound 28]
1.65 nM	10.85	11.15	CCCCCCCCCCCCCCCC(=O)N[C@@H](CCC(=O)N[C@@H](CCC(=O)NCCCC[C@H](NC(=O)[C@H](CC(=O)O)NC(=O)[C@H](CO)NC(=O)[C@@H](NC(=O)[C@H](Cc1ccccc1)NC(=O)[C@@H](NC(=O)CNC(=O)[C@H](CCC(N)=O)NC(=O)C(C)(C)NC(=O)[C@@H](N)Cc1c[nH]cn1)[C@@H](C)O)[C@@H](C)O)C(=O)N[C@@H](CO)C(=O)N[C@@H](CCCCN)C(=O)N[C@@H](Cc1ccc(O)cc1)C(=O)N[C@@H](CC(C)C)C(=O)N[C@@H](CC(=O)O)C(=O)NC(C)(C)C(=O)N[C@@H](CCCNC(=N)N)C(=O)N[C@@H](C)C(=O)N[C@@H](C)C(=O)N[C@@H](CCC(N)=O)C(=O)N[C@@H](CC(=O)O)C(=O)N[C@@H](Cc1ccccc1)C(=O)N[C@H](C(=O)N[C@@H](CCC(N)=O)C(=O)N[C@@H](Cc1c[nH]c2ccccc12)C(=O)N[C@@H](CC(C)C)C(=O)N[C@@H](CC(C)C)C(=O)NC(C)(C)C(=O)NCC(=O)N[C@@H](CCCNC(=N)N)C(=O)NCC(N)=O)C(C)C)C(=O)O)C(=O)O [compound 29] (H-H[Aib]QGTFTSDK([γGlu-γGlu-Palmitoyl])SKYLD[Aib]RAAQDFVQWLL[Aib]GRG-NH2)
